Laboratory results taken from patent US11420922B2, “Hydroxylated tropolone inhibitors of nucleotidyl transferases in herpesvirus and Hepatitis B and uses therefor” (Saint Louis University, priority 2015, dated 2022).
pEC50: −log10 of the molar value.

Tests used:
[1] = test system: patient-derived RNAseH enzymes (genotypes B, C and D); test: Biochemical RNAseH assay with patient-derived variant enzymes; parameters: species or system Hepatitis B virus
Excerpt: Four variant patient-derived RNAseH enzymes were expressed as recombinant enzymes, purified, and tested in an RNAseH assay with compounds #1 (FIG. 7A) and #46 (FIG. 7B) at their respective IC50s.
HBV has at least 8 genotypes differing in sequence by 8%. Genetic diversity in the RNAseH domain is about 6%, which is easily high enough to modulate viral sensitivity to RNAseH inhibitors. Therefore, the inventors tested the RNAseH inhibitors #1 [2-hydroxyisoquinoline-1,3(2H,4H)-dione], an HID, and #46 (β-thujaplicinol), an α-hydroxytropolone, for the ability to inhibit variant RNAseHs. Twelve purified, patient-derived RNAseH enzymes (4 from each genotypes B, C and D) were tested with the compounds at their respective IC50 values in a biochemical RNAseH assay. […] Therefore, HBV's high genetic variation is unlikely to present a substantial barrier to drug development.

[2] = Mouse liver microsome assay; format: in vitro ADME; details: 1 μM in mouse liver microsomes; for ER: extraction ratio
Method: Microsomal incubations are run at a final P450 concentration of 0.25 μM. The microsomal mixture is composed of 0.1M potassium phosphate containing 3.3 mM MgCl and 1 μM compound (final concentration). The mixture is prewarmed for 5 min at 37° C. To initiate the reaction a 12 mM stock of NAPDH (1.2 mM, final concentration) is added to the warmed microsomal mixture and aliquots are removed at 0, 5, 10, 20 and 30 min. Samples are quenched with ice cold acetonitrile containing internal standard and either 1.8 mM EDTA or EGTA (final concentration). Samples are vortexed and spun down at 3200 rpm for 5 min. The supernant is transferred to 96-deep well plates and run on LC/MS/MS.

[3] = test system: HSV-2; details: 5 μM or less; cited from earlier work
[4] = test system: HBV replication; test: Chou-Talalay combination of RNAseH inhibitors with Lamivudine against HBV replication; format: cell-based, Hepatitis B virus; details: CI <1.0 synergy, ~1.0 additive, >1.0 antagonism
Excerpt: Additive interactions are shown with the red line, synergistic interactions below the line, and antagonistic interactions are above the line.
Current nucleos(t)ide analog therapy for HBV has converted hepatitis type B from an implacably progressing illness to a controllable disease. However, patients are only very rarely cured, in part due to the incomplete inhibition of HBV replication. The inventors hypothesized that the novel RNaseH inhibitors would work synergistically with the existing nucleos(t)ide analogs because the two classes of drugs target physically distinct active sites on the viral polymerase protein. […] RNAseH inhibitors from two different chemical classes were employed, compound #1 [2-hydroxyisoquinoline-1,3(2H,4H)-dione], an HID, and #46 (β-thujaplicinol), an α-hydroxytropolone, were tested. Chou-Talaly analysis yields a combination index (CI). CI values<1.0 indicate synergy, CIs of approximately 1.0 indicate additive interactions, and CI values>1.0 indicate antagonism. CI values are calculated at various efficacy levels (EC50, EC75, EC90, and EC95), and a weighted CI value favoring higher efficacy levels is also generated. FIGS. 6A & 6B show the results of four experiments employing compound #1 and three with compound #46. […] Therefore, RNAseH inhibitors act strongly synergistically with an approved nucleos(t)ide analog drug against HBV.

[5] = test system: HSV-1; details: 5 μM or less; cited from earlier work
[6] = test system: HSV-1; test: Anti-HSV-1 replication assay in Vero cells, titers by plaque assay; format: cell-based, herpes simplex virus 1; details: Human alphaherpesvirus 1, Vero, 24 h; for log reduction at 5 µM: read-out: HSV-1 Log suppression 5 μM; for log reduction at 50 µM: read-out: HSV-1 Log suppression 50 μM
Summary of the method: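 Vero monolayers infected with clinical HSV-1 or HSV-2 isolates at MOI 0.1 with compound present (50 and 5 μM final), 1 h at 37° C, then compound in DMEM for another 23 h. Yield titered by plaque assay on Vero cells; EC50 by nonlinear fit of serial dilutions starting at 50 μM, DMSO controls.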

[7] = test system: HSV; test: Anti-HSV SAR summary, HSV type not separated; format: cell-based, herpes simplex virus; details: grouped by activity at 50, 5 and 0.5 μM
Summary of the method: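 Confluent monolayers were infected with HSV-1 or HSV-2 at MOI 0.1 in the presence of compound at 50 and 5 µM for 1 h at 37 °C. Compound was then re-added in DMEM/2% newborn calf serum for 23 h more. Yield was titred by plaque assay on Vero cells, with DMSO controls. EC50 values came from serial dilutions starting at 50 µM, fitted by non-linear regression.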

[8] = test system: Vero cells; test: Qualitative (visual) Vero cell toxicity; format: cell-based; details: visual inspection in primary screen, key to t, T not given
Method: Qualitative assessments of cytotoxicity were done visually by inspecting the cells in the primary screening assays. For the quantitative assays, cells were plated in 96-well plates at 1.0×10^4 per well. The next day the compounds were added at 0.78 to 100 μM in a final concentration of 1% (v/v) DMSO, and the cells were incubated for 24 hours under conditions identical to those employed for the viral replication inhibition assays. Mitochondrial toxicity was measured by incubating the cells with 0.25 mg/mL thiazolyl blue tetrazolium bromide (MTT, Sigma Aldrich Chemical Co.), the cultures were incubated for 60 min, metabolites were solubilized in acidic isopropanol, and absorbance was read at 570 nm. CC50 values were calculated by non-linear curve fitting using GraphPad Prism.
Compound toxicity was measured both subjectively and quantitatively. Subjective assessments were done by visually inspecting the infected cells at the end of the 24 h infection window through a phase-contrast microscope.

[9] = test system: HSV-2; test: Anti-HSV-2 replication assay in Vero cells, titers by plaque assay; format: cell-based, herpes simplex virus 2; details: Human alphaherpesvirus 2, Vero, 24 h; for log reduction at 5 µM: read-out: HSV-2 Log suppression 5 μM; for log reduction at 50 µM: read-out: HSV-2 Log suppression 50 μM
[10] = test system: HBV; test: HBV replication assay in HepDES19 cells; format: cell-based; details: Hepatitis B virus; HepDES19 cells; read-out: EC50 (HBV assay)
Summary of the method: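 HepDES19 cells induced by tetracycline withdrawal, then compound applied 48 h later in duplicate (1% DMSO final) and refreshed daily for two more days. After micrococcal nuclease digestion, capsid-associated HBV DNA purified and plus- and minus-strand DNA quantified by TaqMan PCR.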

| Compound | inhibition of four genotype D RNAseH enzymes ([1]; compound at its IC50, FIGS. 7A & 7B) | inhibition of all 12 variant RNAseH enzymes, in words ([1]; compound at its IC50, genotypes B, C and D) | CL ′hep [2] [mL/min/kg] | CL′int [2] [mL/min/kg] | Non-P450 turn-over [2] | t ½ [2] [h] | ER [2] | suppression of HSV-2 replication in cell culture, in words [3] | weighted CI value (combination index) with Lamivudine [4] | suppression of HSV-1 replication in cell culture, in words [5] | log reduction at 5 µM [6] | log reduction at 50 µM [6] | half-life at 1 μM ([2]; read-out: t ½) [h] | CLint scaled at 1 μM ([2]; mouse, liver microsomes) [mL/min/kg] | predicted hepatic clearance at 1 μM ([2]; mouse, liver microsomes, read-out: CL ′hep) [mL/min/kg] | anti-HSV SAR group, in words [7] | Vero cell toxicity Qualitative [8] | log reduction at 5 µM [9] | log reduction at 50 µM [9] | pEC50 [10] |
| --- | --- | --- | --- | --- | --- | --- | --- | --- | --- | --- | --- | --- | --- | --- | --- | --- | --- | --- | --- | --- |
| CC(C)c1ccc(O)c(=O)c(O)c1 [Compound 46, β-thujaplicinol, reference compound] | about 50% | Equivalent results | 70 | 318 | No | 0.267 | 0.78 | strongly suppress | 0.44±0.3 | strongly suppress |  |  |  |  |  |  |  |  |  |  |
| CC(=O)c1cc(O)c(=O)c(O)cc1C [Compound 110] |  |  |  |  | No |  | 0.22 |  |  |  | -0.47 | 5.11 | > 2 | 26 | 20 | weakest inhibitors | t? | -0.65 | 4.24 | 6.47 |
| CCOC(=O)c1c(C)cc(O)c(=O)c(O)c1C [Compound 117] |  |  |  |  |  |  |  |  |  |  | 0.76 | 4.66 |  |  |  | weakest inhibitors | t? | -0.16 | 4.97 |  |
